From ChEMBL document CHEMBL1127513, “Glutathione-S-transferase activates novel alkylating agents” (J Med Chem, 1994)
pIC50: −log10 of the molar value.

How the values were obtained:
Type in all cases: functional, cell-based
MCF7 [1] = experiment: Inhibitory activity against MCF-7 neo cells […] for treatment time of 120 min.; conditions: Homo sapiens, MCF7, 2 h
MCF7 [2] = experiment: Inhibitory activity against MCF-7 pi cells containing P1-1 GST for treatment time of 120 min.; conditions: Homo sapiens, MCF7, 2 h
HT-29 [3] = experiment: Inhibitory activity against HT-29 human colon carcinoma cells containing P1-1 GST for treatment time of 120 min.; conditions: HT-29, 2 h
HT-29 [4] = experiment: Inhibitory activity against HT-29 human colon carcinoma cells containing P1-1 GST for treatment time of 60 min.; conditions: HT-29, 1 h

SMILES: NC(CCC(=O)NC(CS(=O)(=O)CCOP(=O)(N(CCCl)CCCl)N(CCCl)CCCl)C(=O)NC(C(=O)O)c1ccccc1)C(=O)O (stereo not drawn)
- pIC50 (MCF7 [1]): 4.43
- pIC50 (MCF7 [2]): 5.02
- pIC50 (HT-29 [3]): 4.10
- pIC50 (HT-29 [4]): 3.77

SMILES: NC(CCC(=O)NC(CS(=O)(=O)CCOP(=O)(N(CCCl)CCCl)N(CCCl)CCCl)C(=O)NCC(=O)O)C(=O)O (stereo not drawn)
- pIC50 (MCF7 [1]): 4.40
- pIC50 (MCF7 [2]): 4.68
- pIC50 (HT-29 [3]): 4.16
- pIC50 (HT-29 [4]): 4.07
